How the values were obtained:
[1] = test system: trypsin-like GAS protease; experiment: Degradation of IL-8 by JS95 supernatant (Western blot, ELISA); type: biochemical, Group A Streptococcus (GAS); details: for IL-8 degradation (ELISA): JS95 supernatant pretreated 30 min 37° C.: 0.3 μM aprotinin, 1 mM benzamidine, 100 μg/ml soybean trypsin inhibitor, FIG. 15A
Description: […] was grown in the absence and presence of SilCR (50 μg/ml). IL-8 was incubated with the indicated supernatant fractions and then subjected to 18% SDS-PAGE. The separated protein bands were electro-transferred to a nitrocellulose membrane. Anti-IL-8 antibody and a secondary antibody conjugated to horseradish peroxidase were used to detect IL-8. The number of the lane represents incubation of IL-8 with: 1, DMEM+FCS (control); 2, JS95 supernatant; 3, JS95 supernatant grown in the presence of SilCR; 4, JS95 supernatant, pretreated with pefabloc SC; 5, supernatant of JS95 grown in the absence of SilCR, then 50 μg/ml of SilCR was added to the degradation assay.
15A The column numbers represent the ELISA results after incubation of IL-8 with: 1, DMEM+FCS (control); and the supernatants of: 2, JS95; 3, JS95 grown in the presence of SilCR; 4, JS95 pretreated with aprotenin; 5, JS95 pretreated with soybean trypsin inhibitor; 6, JS95 pretreated with benzamidine. The background of the ELISA assay (0.08±0.004) was subtracted from the shown results. The data represent the mean ± SD, of three separate experiments.
(§1) A. Cell culture of JS95 strain was grown in THY to an OD600 of 0.2. To determine the effect of SilCR on chemokine proteolysis, the culture was split into two equal fractions, of which one received SilCR (25 μg/ml). Both fractions were further incubated until they reached an OD600 of 0.3. Bacteria were washed twice with sterile PBS and once with DMEM containing 10% FCS. The washed pellets were re-suspended in DMEM supplemented with FCS to their original volumes. SilCR (50 μg/ml) was added to the fraction that was grown in the presence of SilCR, and the two fractions were further incubated for 1 h at 37° C. Supernatants were collected after centrifugation. The proteolysis reaction contained: 0.08 ml of each supernatant, 100 ng of recombinant human IL-8/CXCL8 (R&D systems, Minneapolis, Minn.) or 30 ng of recombinant murine MIP-2 (R& D systems, Minneapolis, Minn.), 20 mM MOPS pH=7.2 in a final volume of 0.1 ml. The reaction was conducted for 1 h at 37° C., and stopped by boiling for 1 min.
(§2) B. For testing protease inhibitors, the supernatants were pre-incubated with the inhibitor for 30 min at 37° C., followed by the proteolysis reaction. The following concentrations of inhibitors were used: 4 mM pefabloc SC; 0.5 mM PMSF; 0.3 μM aprotinin; 1 mM benzamidine; 100 μg/ml soybean trypsin inhibitor (STI).
C. Proteolysis of chemokines was determined by ELISA and Dot-blot. IL-8 content was quantified by ELISA using the Quantikine kit for determination of human IL-8 (R&D Systems, Minneapolis, Minn.) according to the manufacturer's instructions.

[2] = test system: trypsin-like GAS protease; experiment: Degradation of MIP-2 by JS95 supernatant (dot blot); type: biochemical, Group A Streptococcus (GAS); details: pretreatment of JS95 supernatant: 4 mM pefabloc SC; 0.3 μM aprotinin; 1 mM benzamidine; 100 μg/ml STI
Description: 15B. The dots in the control panel represent MIP-2 that was incubated in DMEM+FCS, in the absence of JS95 supernatant and spotted at the following doses: 30, 15, 7.5, 3.75 and 1.87 ng (from left to right). The dots in the lower panel were generated in the same way, except that MIP-2 was previously incubated with JS95 supernatant.
as §1, §2
Samples of 50 μl from the proteolysis reaction were diluted in PBS to a final volume of 0.5 ml and passed through a 96-wells dot-blotter onto a 0.2-μm-nitrocellulose membrane. Detection of MIP-2 was performed using anti-mouse MIP-2 polyclonal antibodies (R&D Systems Minneapolis, Minn.) followed by addition of anti-mouse IgG-HRP antibody. Dots were detected using the SuperSignal West Pico chemiluminescent detection kit (Pierce, Rockford, Ill.).

Row | Compound | IL-8 degradation (ELISA) [1] | MIP-2 degradation [2] | IL-8 degradation (Western blot) ([1]; JS95 supernatant pretreated 30 min 37° C. with 4 mM pefabloc SC, FIG. 14)
1 | soybean trypsin inhibitor | completely abrogated | blocked | 
2 | N=C(N)c1ccccc1 [benzamidine] | completely abrogated | blocked | 
3 | aprotinin | completely inhibited | blocked | 
4 | Cl.NCCc1ccc(S(=O)(=O)F)cc1 [pefabloc SC] |  | blocked | almost completely abolished
